Test results from PubChem BioAssay AID330 (DTP/NCI, 2004).
Where “and” joins values, the source holds several entries; their conditions need not be identical. Equal entries are not always repeated. Toxic doses and inconclusive results are not listed. Rule for the calls: active = survival T/C of 150% or more; inactive = T/C below 125% in these data.

Test system: P388 leukemia ip, CD2F1 mice, survival T/C
Assay: NCI In Vivo Anticancer Drug Screen. Data for tumor model P388 Leukemia (intraperitoneal) in CD2F1 (CDF1) mice
Conditions: endpoint: median survival time, higher = longer survival
Summary of the method: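 Mice carrying the transplanted tumor received test compound or vehicle. Survival was recorded in each group, and the value is the treated-group measurement divided by that of the vehicle-treated control group.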

[1] = dose: 100.0 mg/kg/injection, schedule: Q01DX009 (ip), vehicle: saline with Tween-80
[2] = dose: 200.0 mg/kg/injection, schedule: Q01DX009 (ip), vehicle: saline with Tween-80
[3] = dose: 400.0 mg/kg/injection, schedule: Q01DX009 (ip), vehicle: saline with Tween-80
[4] = dose: 25.0 mg/kg/injection, schedule: Q01DX009 (ip), vehicle: saline with Tween-80
[5] = dose: 50.0 mg/kg/injection, schedule: Q01DX009 (ip), vehicle: saline with Tween-80
[6] = dose: 50.0 mg/kg/injection, schedule: Q01DX005 (ip), vehicle: saline with Tween-80
[7] = dose: 100.0 mg/kg/injection, schedule: Q01DX005 (ip), vehicle: saline with Tween-80
[8] = dose: 200.0 mg/kg/injection, schedule: Q01DX005 (ip), vehicle: saline with Tween-80

Measured: T/C

CCOC(=O)c1ccc(N(CC)CC)cc1
inactive: [1] 100 % of control | [2] 104 % of control | [3] 100 % of control

CCOCc1c(-c2ccccc2)sc2ccccc2c1=O
inactive: dose: 60.0 mg/kg/injection, schedule: Q01DX005 (ip), vehicle: Klucel (hydroxypropylcellulose) (HPC) 98 % of control | dose: 120.0 mg/kg/injection, schedule: Q01DX005 (ip), vehicle: Klucel (hydroxypropylcellulose) (HPC) 95 % of control | dose: 240.0 mg/kg/injection, schedule: Q01DX005 (ip), vehicle: Klucel (hydroxypropylcellulose) (HPC) 92 % of control

CCCCC/C(C=C(C#N)C#N)=C/c1ccccc1
inactive: [4] 103 % of control and 86 % of control | [5] 100 % of control and 123 % of control and 91 % of control | [1] 119 % of control and 92 % of control | [2] 111 % of control

Cc1ccc(S(=O)(=O)OCCN2CC2)cc1
inactive: [5] 94 % of control | [1] 89 % of control | [2] 99 % of control

N=C(N)SC1C=C(O)C=C(c2c(O)c(=O)oc3ccccc23)C1=O (stereo unspecified)
inactive: [6] 104 % of control | [7] 103 % of control | [8] 88 % of control

Cc1cccc(Nc2nc(C)nc3[nH]c(CC(C)C)c(C)c23)c1
inactive: dose: 50.0 mg/kg/injection, schedule: Q01DX005 (ip), vehicle: Klucel (hydroxypropylcellulose) (HPC) 91 % of control | dose: 100.0 mg/kg/injection, schedule: Q01DX005 (ip), vehicle: Klucel (hydroxypropylcellulose) (HPC) 96 % of control | dose: 200.0 mg/kg/injection, schedule: Q01DX005 (ip), vehicle: Klucel (hydroxypropylcellulose) (HPC) 98 % of control

CCOc1cccc2c1C(=O)c1cccc(OCC)c1C2(O)C#Cc1ccccc1 (stereo unspecified)
inactive: dose: 100.0 mg/kg/injection, schedule: Q04DX002 (ip), vehicle: saline with Tween-80 90 % of control | dose: 200.0 mg/kg/injection, schedule: Q04DX002 (ip), vehicle: saline with Tween-80 87 % of control | dose: 400.0 mg/kg/injection, schedule: Q04DX002 (ip), vehicle: saline with Tween-80 86 % of control

CS(=O)(=O)O/C=C1\CCc2ccccc2C1=O
inactive: [6] 98 % of control | [7] 98 % of control | [8] 105 % of control

NCCSC(C[N+](=O)[O-])c1ccc2c(c1)OCO2 (stereo unspecified)
inactive: dose: 12.5 mg/kg/injection, schedule: Q01DX009 (ip), vehicle: saline with Tween-80 119 % of control | [4] 124 % of control

CCCCCCOCN(COCCCCCC)c1ccc(Cl)cc1
inactive: [5] 102 % of control | [1] 109 % of control | [2] 118 % of control

CN(CCS(=O)(=O)O)/N=C/c1ccc2c(c1)OCO2
inactive: dose: 100.0 mg/kg/injection, schedule: Q04DX003 (ip), vehicle: Klucel (hydroxypropylcellulose) (HPC) 103 % of control | dose: 200.0 mg/kg/injection, schedule: Q04DX003 (ip), vehicle: Klucel (hydroxypropylcellulose) (HPC) 100 % of control | dose: 400.0 mg/kg/injection, schedule: Q04DX003 (ip), vehicle: Klucel (hydroxypropylcellulose) (HPC) 100 % of control

Cc1ccc(S(=O)(=O)CC(=O)CC(=O)C(=O)Nc2cc(C)ccc2C)cc1
inactive: dose: 60.0 mg/kg/injection, schedule: Q01DX005 (ip), vehicle: saline with Tween-80 105 % of control | dose: 120.0 mg/kg/injection, schedule: Q01DX005 (ip), vehicle: saline with Tween-80 108 % of control | dose: 240.0 mg/kg/injection, schedule: Q01DX005 (ip), vehicle: saline with Tween-80 106 % of control

O=C1N(Cc2ccccc2)C2CCS(=O)CCC2N1Cc1ccccc1 (stereo unspecified)
inactive: [6] 100 % of control | [7] 95 % of control | [8] 92 % of control

CNc1c(NC)n(C)c(=O)n(C)c1=O
inactive: [5] 90 % of control | dose: 50.0 mg/kg/injection, schedule: Q01DX009 (ip), vehicle: saline 109 % of control | [1] 105 % of control and 97 % of control | dose: 100.0 mg/kg/injection, schedule: Q01DX009 (ip), vehicle: saline 109 % of control | [2] 121 % of control and 97 % of control | dose: 200.0 mg/kg/injection, schedule: Q01DX009 (ip), vehicle: saline 106 % of control | [3] 100 % of control and 112 % of control
